Where two headings read alike, the source gives them in different places.
Key:
Assay in all cases: biochemical
Parameters in all cases: DiscoveRx KINOMEscan active site-directed competition binding; percent of control kinase bound to immobilised ligand
CSNK1A1 = CSNK1A1 (Homo sapiens, UniProt P48729)
p38-alpha = molecular target: T1, p38-alpha (Homo sapiens, UniProt Q16539)
T1 construct: gene MAPK14

JNK2 = molecular target: T2, JNK2 (Homo sapiens, UniProt P45984)
T2 construct: gene MAPK9

PIK3CA = PIK3CA (Homo sapiens, UniProt P42336)
PIK3CA, sequence (P42336 whole entry): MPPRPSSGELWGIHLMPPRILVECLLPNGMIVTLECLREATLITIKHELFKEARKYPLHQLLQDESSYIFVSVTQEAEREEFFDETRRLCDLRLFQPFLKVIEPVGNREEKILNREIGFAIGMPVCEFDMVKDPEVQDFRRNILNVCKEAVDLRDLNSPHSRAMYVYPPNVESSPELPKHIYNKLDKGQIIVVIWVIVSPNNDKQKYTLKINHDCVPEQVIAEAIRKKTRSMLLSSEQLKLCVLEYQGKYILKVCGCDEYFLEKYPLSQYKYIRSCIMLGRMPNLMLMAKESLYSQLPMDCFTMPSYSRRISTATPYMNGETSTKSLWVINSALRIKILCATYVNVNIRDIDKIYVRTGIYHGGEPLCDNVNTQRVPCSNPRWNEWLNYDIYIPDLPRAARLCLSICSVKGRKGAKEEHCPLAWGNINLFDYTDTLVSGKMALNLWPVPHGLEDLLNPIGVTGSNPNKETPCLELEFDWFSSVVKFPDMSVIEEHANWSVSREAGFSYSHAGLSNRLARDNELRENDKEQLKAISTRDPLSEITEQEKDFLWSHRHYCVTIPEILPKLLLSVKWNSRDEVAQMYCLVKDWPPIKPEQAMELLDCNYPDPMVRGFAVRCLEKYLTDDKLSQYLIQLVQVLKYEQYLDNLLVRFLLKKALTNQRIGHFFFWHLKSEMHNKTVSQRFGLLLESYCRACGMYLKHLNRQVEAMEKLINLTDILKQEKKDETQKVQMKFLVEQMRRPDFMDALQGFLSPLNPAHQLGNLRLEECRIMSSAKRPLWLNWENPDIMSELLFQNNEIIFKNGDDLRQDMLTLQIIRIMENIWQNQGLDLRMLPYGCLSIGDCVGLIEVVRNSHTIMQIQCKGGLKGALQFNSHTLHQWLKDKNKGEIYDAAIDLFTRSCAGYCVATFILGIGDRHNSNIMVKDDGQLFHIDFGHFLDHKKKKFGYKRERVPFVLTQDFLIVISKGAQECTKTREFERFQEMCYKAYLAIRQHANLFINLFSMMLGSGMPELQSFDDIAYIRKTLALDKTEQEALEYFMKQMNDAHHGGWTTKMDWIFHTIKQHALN

TRKA = molecular target: T3, TRKA (Homo sapiens, UniProt P04629)
T3 construct: gene NTRK1
T3 sequence (P04629 whole entry): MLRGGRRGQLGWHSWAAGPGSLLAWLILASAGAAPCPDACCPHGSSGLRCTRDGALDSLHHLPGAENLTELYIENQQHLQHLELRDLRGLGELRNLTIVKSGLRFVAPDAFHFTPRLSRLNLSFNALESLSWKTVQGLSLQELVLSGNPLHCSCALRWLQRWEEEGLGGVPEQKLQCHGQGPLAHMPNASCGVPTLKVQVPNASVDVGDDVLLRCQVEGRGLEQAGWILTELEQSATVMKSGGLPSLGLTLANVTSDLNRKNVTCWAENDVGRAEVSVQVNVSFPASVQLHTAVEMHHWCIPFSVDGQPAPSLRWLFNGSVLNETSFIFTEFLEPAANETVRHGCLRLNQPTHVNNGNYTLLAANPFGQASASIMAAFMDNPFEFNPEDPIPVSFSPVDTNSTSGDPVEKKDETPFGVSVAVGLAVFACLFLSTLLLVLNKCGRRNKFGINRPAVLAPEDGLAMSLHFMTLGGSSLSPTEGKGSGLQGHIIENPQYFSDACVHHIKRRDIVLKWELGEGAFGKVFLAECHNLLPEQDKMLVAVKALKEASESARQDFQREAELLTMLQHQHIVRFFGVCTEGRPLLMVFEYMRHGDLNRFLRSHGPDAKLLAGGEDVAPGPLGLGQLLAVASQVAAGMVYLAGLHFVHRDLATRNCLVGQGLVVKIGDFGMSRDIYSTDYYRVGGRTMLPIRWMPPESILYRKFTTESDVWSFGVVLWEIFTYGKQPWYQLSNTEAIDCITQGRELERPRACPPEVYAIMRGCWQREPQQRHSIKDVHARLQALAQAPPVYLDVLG

EPHA2 = EPHA2 (Homo sapiens, UniProt P29317)
EPHA2, sequence (P29317 whole entry): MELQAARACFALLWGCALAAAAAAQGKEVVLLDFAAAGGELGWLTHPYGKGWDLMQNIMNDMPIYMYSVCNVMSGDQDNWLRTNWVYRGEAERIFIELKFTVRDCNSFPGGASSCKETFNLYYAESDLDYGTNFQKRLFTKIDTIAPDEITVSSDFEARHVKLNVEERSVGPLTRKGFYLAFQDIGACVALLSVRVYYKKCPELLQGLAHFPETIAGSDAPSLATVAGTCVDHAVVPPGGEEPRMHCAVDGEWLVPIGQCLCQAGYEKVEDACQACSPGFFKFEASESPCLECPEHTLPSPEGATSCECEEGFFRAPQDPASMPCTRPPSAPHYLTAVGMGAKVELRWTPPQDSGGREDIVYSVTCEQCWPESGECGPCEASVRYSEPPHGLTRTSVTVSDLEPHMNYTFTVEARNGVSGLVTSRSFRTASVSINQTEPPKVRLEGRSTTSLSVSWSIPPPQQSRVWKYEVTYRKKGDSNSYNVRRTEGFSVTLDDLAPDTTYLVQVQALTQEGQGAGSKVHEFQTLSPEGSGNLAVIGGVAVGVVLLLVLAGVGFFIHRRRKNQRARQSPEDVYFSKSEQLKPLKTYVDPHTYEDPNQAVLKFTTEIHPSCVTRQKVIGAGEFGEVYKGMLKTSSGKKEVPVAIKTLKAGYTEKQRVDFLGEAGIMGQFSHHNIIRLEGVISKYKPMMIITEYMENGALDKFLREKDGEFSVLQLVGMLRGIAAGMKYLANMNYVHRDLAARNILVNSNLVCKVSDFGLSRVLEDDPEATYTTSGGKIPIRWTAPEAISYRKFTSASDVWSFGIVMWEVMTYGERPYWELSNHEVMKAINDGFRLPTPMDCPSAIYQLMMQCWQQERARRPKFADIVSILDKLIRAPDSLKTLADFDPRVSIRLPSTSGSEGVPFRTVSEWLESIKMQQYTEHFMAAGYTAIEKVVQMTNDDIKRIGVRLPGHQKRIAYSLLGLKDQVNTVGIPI

CDK7 = CDK7 (Homo sapiens, UniProt P50613)
CDK7, sequence (P50613 whole entry): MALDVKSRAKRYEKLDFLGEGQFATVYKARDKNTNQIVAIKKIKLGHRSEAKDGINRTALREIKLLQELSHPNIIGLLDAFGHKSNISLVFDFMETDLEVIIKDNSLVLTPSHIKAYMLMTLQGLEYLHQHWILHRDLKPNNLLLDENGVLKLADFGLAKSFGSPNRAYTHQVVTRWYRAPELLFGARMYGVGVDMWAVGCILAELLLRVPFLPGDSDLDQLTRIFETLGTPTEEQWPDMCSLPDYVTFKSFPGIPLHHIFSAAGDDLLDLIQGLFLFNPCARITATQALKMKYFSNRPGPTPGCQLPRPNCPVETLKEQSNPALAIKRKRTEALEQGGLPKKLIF

DLK = molecular target: T4, DLK (Homo sapiens, UniProt Q12852)
T4 construct: gene MAP3K12
T4 sequence (Q12852 1-859): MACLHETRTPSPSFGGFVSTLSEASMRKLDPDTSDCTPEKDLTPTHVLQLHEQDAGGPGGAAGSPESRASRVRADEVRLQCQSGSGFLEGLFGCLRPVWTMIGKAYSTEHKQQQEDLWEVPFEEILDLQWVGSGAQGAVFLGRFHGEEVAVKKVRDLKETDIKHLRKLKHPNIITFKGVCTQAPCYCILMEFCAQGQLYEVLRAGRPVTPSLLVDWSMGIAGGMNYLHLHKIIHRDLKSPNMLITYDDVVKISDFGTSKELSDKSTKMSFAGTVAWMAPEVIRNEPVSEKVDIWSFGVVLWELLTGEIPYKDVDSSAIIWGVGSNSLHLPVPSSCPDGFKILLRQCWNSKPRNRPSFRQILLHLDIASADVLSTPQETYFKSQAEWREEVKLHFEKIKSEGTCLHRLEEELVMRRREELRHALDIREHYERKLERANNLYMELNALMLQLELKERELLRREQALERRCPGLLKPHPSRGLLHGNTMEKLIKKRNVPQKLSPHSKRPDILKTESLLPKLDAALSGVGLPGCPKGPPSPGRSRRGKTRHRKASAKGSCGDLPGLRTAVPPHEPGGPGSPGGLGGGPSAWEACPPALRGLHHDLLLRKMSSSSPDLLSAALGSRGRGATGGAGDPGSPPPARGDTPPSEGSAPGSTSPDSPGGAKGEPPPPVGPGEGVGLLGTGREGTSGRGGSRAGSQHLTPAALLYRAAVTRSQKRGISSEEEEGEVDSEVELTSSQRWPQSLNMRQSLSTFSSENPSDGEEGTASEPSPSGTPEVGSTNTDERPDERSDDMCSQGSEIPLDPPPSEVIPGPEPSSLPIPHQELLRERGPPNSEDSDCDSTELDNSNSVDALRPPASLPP

PDGFRA = PDGFRA (Homo sapiens, UniProt P16234)
PDGFRA, sequence (P16234 whole entry): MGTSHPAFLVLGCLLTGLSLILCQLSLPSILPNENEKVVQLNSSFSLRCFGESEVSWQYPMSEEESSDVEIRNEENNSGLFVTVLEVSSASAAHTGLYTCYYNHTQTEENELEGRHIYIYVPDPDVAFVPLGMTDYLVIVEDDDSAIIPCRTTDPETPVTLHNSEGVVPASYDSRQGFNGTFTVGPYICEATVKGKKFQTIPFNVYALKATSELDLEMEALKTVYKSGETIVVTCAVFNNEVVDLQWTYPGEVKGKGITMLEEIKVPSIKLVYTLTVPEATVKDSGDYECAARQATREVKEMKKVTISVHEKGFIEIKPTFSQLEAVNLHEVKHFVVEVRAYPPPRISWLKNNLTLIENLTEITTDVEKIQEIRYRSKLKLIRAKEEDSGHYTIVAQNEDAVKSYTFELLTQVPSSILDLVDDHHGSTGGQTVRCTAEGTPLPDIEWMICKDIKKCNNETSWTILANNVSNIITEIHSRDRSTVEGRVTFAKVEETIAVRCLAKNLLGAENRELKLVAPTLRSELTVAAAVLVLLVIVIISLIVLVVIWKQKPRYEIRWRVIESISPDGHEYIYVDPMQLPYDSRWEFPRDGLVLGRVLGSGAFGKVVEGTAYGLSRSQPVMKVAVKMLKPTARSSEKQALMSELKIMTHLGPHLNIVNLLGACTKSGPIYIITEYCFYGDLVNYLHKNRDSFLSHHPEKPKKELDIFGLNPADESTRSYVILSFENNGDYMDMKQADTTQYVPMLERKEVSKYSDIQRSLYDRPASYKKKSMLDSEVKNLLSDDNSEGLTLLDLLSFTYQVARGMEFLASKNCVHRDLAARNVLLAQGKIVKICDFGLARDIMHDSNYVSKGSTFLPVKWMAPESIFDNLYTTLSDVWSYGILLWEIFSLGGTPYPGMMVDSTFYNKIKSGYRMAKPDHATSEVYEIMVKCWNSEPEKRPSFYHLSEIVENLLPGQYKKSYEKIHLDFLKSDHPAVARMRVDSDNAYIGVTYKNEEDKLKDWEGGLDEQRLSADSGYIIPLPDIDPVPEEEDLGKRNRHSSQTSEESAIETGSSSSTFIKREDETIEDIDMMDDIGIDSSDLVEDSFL

LKB1 = molecular target: T5, LKB1 (Homo sapiens, UniProt Q15831)
T5 construct: gene STK11
T5 sequence (Q15831 1-433): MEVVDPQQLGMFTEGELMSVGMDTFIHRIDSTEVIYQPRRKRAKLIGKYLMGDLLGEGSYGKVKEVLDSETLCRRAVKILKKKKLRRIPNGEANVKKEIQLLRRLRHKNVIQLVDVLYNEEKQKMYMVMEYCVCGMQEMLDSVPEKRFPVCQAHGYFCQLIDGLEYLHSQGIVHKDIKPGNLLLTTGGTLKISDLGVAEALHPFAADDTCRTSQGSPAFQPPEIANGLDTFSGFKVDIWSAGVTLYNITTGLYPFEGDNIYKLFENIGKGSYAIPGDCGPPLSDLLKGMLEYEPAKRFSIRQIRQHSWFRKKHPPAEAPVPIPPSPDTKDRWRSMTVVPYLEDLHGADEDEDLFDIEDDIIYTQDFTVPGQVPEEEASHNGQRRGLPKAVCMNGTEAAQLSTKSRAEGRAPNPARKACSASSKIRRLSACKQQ

RIOK3 = molecular target: T6, RIOK3 (Homo sapiens, UniProt O14730)
T6 sequence (O14730 1-519): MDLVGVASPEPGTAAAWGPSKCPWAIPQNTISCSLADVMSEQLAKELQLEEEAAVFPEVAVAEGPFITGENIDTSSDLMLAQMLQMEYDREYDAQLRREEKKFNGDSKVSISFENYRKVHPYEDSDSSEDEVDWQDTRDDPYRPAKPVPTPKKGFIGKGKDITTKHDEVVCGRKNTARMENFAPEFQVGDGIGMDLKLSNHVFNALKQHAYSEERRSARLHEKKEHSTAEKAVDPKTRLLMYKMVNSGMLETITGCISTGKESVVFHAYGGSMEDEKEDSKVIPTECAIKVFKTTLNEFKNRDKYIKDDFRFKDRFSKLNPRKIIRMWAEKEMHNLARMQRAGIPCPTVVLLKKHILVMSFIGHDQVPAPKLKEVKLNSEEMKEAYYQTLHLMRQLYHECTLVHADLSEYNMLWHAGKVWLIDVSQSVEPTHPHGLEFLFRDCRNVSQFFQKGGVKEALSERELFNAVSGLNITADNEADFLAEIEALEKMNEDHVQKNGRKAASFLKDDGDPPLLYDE

[1] = read-out: Talazoparib (BMN 673) / %Ctrl @ 10000nM
[2] = read-out: Olaparib / %Ctrl @ 10000nM
[3] = read-out: Niraparib (MK-4827) / %Ctrl @ 10000nM
[4] = read-out: Rucaparib / %Ctrl @ 10000nM, binding competition, % of control

T2 sequence (P45984 whole entry): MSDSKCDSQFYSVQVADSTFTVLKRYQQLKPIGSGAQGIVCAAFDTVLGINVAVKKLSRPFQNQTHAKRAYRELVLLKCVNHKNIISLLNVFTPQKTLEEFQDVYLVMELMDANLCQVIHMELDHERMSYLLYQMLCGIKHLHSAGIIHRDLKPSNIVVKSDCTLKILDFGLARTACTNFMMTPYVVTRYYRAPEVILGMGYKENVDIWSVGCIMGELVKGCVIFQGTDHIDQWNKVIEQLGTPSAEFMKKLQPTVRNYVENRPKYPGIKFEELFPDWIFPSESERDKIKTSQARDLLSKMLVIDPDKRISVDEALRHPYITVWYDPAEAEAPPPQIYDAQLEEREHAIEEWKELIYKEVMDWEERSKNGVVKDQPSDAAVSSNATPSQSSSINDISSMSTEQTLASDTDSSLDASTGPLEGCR
CSNK1A1, sequence (P48729 whole entry): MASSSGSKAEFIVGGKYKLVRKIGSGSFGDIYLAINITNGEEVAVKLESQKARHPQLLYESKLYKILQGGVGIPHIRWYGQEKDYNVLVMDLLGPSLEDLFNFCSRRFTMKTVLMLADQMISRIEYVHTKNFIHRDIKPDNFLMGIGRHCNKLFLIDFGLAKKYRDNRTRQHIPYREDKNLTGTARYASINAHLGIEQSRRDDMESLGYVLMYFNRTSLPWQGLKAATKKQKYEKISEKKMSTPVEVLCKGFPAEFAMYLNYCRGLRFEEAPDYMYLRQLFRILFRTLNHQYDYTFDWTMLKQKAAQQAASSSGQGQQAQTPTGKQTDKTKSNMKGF

## Cn1ncnc1[C@H]1c2n[nH]c(=O)c3cc(F)cc(c23)N[C@@H]1c1ccc(F)cc1 [Talazoparib]
CSNK1A1; [1]
  percent of control binding at 10 µM: 73%
p38-alpha; [1]
  percent of control binding at 10 µM: 83%
JNK2; [1]
  percent of control binding at 10 µM: 95%
PIK3CA; [1]
  percent of control binding at 10 µM: 59%
TRKA; [1]
  percent of control binding at 10 µM: 100%
EPHA2; [1]
  percent of control binding at 10 µM: 100%
CDK7; [1]
  percent of control binding at 10 µM: 100%
DLK; [1]
  percent of control binding at 10 µM: 100%
PDGFRA; [1]
  percent of control binding at 10 µM: 99%
LKB1; [1]
  percent of control binding at 10 µM: 93%
RIOK3; [1]
  percent of control binding at 10 µM: 100%

## O=C(c1cc(Cc2n[nH]c(=O)c3ccccc23)ccc1F)N1CCN(C(=O)C2CC2)CC1 [Olaparib]
CSNK1A1; [2]
  percent of control binding at 10 µM: 81%
p38-alpha; [2]
  percent of control binding at 10 µM: 100%
JNK2; [2]
  percent of control binding at 10 µM: 81%
PIK3CA; [2]
  percent of control binding at 10 µM: 87%
TRKA; [2]
  percent of control binding at 10 µM: 91%
EPHA2; [2]
  percent of control binding at 10 µM: 97%
CDK7; [2]
  percent of control binding at 10 µM: 89%
DLK; [2]
  percent of control binding at 10 µM: 96%
PDGFRA; [2]
  percent of control binding at 10 µM: 75%
LKB1; [2]
  percent of control binding at 10 µM: 90%
RIOK3; [2]
  percent of control binding at 10 µM: 100%

## NC(=O)c1cccc2cn(-c3ccc([C@@H]4CCCNC4)cc3)nc12 [Niraparib]
CSNK1A1; [3]
  percent of control binding at 10 µM: 34%
p38-alpha; [3]
  percent of control binding at 10 µM: 95%
JNK2; [3]
  percent of control binding at 10 µM: 95%
PIK3CA; [3]
  percent of control binding at 10 µM: 100%
TRKA; [3]
  percent of control binding at 10 µM: 99%
EPHA2; [3]
  percent of control binding at 10 µM: 94%
CDK7; [3]
  percent of control binding at 10 µM: 73%
DLK; [3]
  percent of control binding at 10 µM: 100%
PDGFRA; [3]
  percent of control binding at 10 µM: 69%
LKB1; [3]
  percent of control binding at 10 µM: 100%
RIOK3; [3]
  percent of control binding at 10 µM: 95%

## CNCc1ccc(-c2[nH]c3cc(F)cc4c3c2CCNC4=O)cc1 [Rucaparib]
CSNK1A1; [4]
  percent of control binding at 10 µM: 39%
p38-alpha; [4]
  percent of control binding at 10 µM: 90%
JNK2; [4]
  percent of control binding at 10 µM: 68%
PIK3CA; [4]
  percent of control binding at 10 µM: 91%
TRKA; [4]
  percent of control binding at 10 µM: 74%
EPHA2; [4]
  percent of control binding at 10 µM: 100%
CDK7; [4]
  percent of control binding at 10 µM: 71%
DLK; [4]
  percent of control binding at 10 µM: 91%
PDGFRA; [4]
  percent of control binding at 10 µM: 53%
LKB1; [4]
  percent of control binding at 10 µM: 91%
RIOK3; [4]
  percent of control binding at 10 µM: 85%

Source: publication PMC7026418, “The kinase polypharmacology landscape of clinical PARP inhibitors” (Scientific Reports, 2020)
